Laboratory results reported in US8907103B2, “Glucagon antagonists” (Metabasis Therapeutics, Inc., priority 2008, dated 2014).

system: not listed separately; assay: Oral bioavailability in the rat; format: in vivo; settings: not given

Compound | OBAV in rat
Cc1cc(C)c(-c2ccc(NC(=O)[C@H](Cc3ccc(C(=O)NCCS(=O)(=O)O)cc3)c3ccc(-c4ccc(C(C)(C)C)cc4)cc3)cc2)c(C)c1 | 73%
Cc1cc(Cl)ccc1-c1ccc(NC(=O)[C@H](Cc2ccc(C(=O)NCCS(=O)(=O)O)cc2)c2cccc(C3CCC(C)(C)CC3)c2)cc1 | 52%
Cc1cc(Cl)ccc1-c1ccc(NC(=O)[C@H](Cc2ccc(C(=O)NCCS(=O)(=O)O)cc2)c2ccc([C@H]3CC[C@@H](C(C)(C)C)CC3)cc2)cc1 | 54%
Cc1cc(-c2ccc(NC(=O)[C@H](Cc3ccc(C(=O)NCCS(=O)(=O)O)cc3)c3ccc(-c4ccc(C(C)(C)C)cc4)cc3)cc2)ccc1Cl | 62%
CC1(C)CC=C(c2ccc(NC(=O)[C@H](Cc3ccc(C(=O)NCCS(=O)(=O)O)cc3)c3ccc(-c4ccc(C(C)(C)C)cc4)cc3)cc2)CC1 | 69%
Cc1cc(Cl)ccc1-c1ccc(NC(=O)C(Cc2ccc(C(=O)NCCS(=O)(=O)O)cc2)c2ccc(C3=CCC(C)(C)CC3)cc2)cc1 (racemic) | 48%
Cc1cc(Cl)ccc1-c1ccc(NC(=O)C(Cc2ccc(C(=O)NCCS(=O)(=O)O)cc2)c2cccc(C3=CCC(C)(C)CC3)c2)cc1 (racemic) | 38%

system: db/db mouse; assay: Glucose lowering in db/db mice; format: in vivo; settings: oral gavage, freely-feeding db/db mice, 100% = normalization to lean db/+, read-out: % Glu lowering in db/db mouse @ 30 mg/kg
Method: To assess the effects of compounds provided herein on blood glucose levels in the db/db mouse, an animal model of type 2 diabetes, compounds are dissolved in polyethylene glycol-400 and administered by oral gavage to db/db mice in the freely-feeding state at doses of 30 and/or 100 mg/kg. Blood glucose levels are assessed in blood samples obtained by tail bleed at baseline (prior to drug administration) and at regular time intervals over 24 hrs using a portable glucometer such as the OneTouch or HemoCue meters. The magnitude of blood glucose lowering elicited by the compounds provided herein is determined by comparison to those in db/db mice administered only the vehicle. The percentage glucose lowering is calculated by factoring in the blood glucose levels of vehicle-treated lean db/+ (heterozygote) mice, with 100% representing the normalization of blood glucose levels from the hyperglycemic state (vehicle-treated db/db mice) to the normoglycemic state (vehicle-treated db/+ mice).

Compound | inhibition in vivo at 30 mg/kg
Cc1cc(C)c(-c2ccc(NC(=O)[C@H](Cc3ccc(C(=O)NCCS(=O)(=O)O)cc3)c3ccc(-c4ccc(C(C)(C)C)cc4)cc3)cc2)c(C)c1 | 57%
Cc1cc(Cl)ccc1-c1ccc(NC(=O)[C@H](Cc2ccc(C(=O)NCCS(=O)(=O)O)cc2)c2cccc(C3CCC(C)(C)CC3)c2)cc1 | 45%
Cc1cc(Cl)ccc1-c1ccc(NC(=O)[C@H](Cc2ccc(C(=O)NCCS(=O)(=O)O)cc2)c2ccc([C@H]3CC[C@@H](C(C)(C)C)CC3)cc2)cc1 | 53%
Cc1cc(-c2ccc(NC(=O)[C@H](Cc3ccc(C(=O)NCCS(=O)(=O)O)cc3)c3ccc(-c4ccc(C(C)(C)C)cc4)cc3)cc2)ccc1Cl | 33%
CC1(C)CC=C(c2ccc(NC(=O)[C@H](Cc3ccc(C(=O)NCCS(=O)(=O)O)cc3)c3ccc(-c4ccc(C(C)(C)C)cc4)cc3)cc2)CC1 | 29%
Cc1ccccc1-c1ccc(NC(=O)C(Cc2ccc(C(=O)NCCS(=O)(=O)O)cc2)c2ccc(-c3ccc(C(C)(C)C)cc3)cc2)cc1 (racemic) | 45%
Cc1cc(Cl)ccc1-c1ccc(NC(=O)C(Cc2ccc(C(=O)NCCS(=O)(=O)O)cc2)c2ccc(C3CCC(C(C)(C)C)CC3)cc2)cc1 (racemic) | 58%
Cc1cc(C(F)(F)F)ccc1-c1ccc(NC(=O)C(Cc2ccc(C(=O)NCCS(=O)(=O)O)cc2)c2ccc(C3=CCC(C)(C)CC3)cc2)cc1 (racemic) | 20%
Cc1cc(Cl)ccc1-c1ccc(NC(=O)C(Cc2ccc(C(=O)NCCS(=O)(=O)O)cc2)c2ccc(C3=CCC(C)(C)CC3)cc2)cc1 (racemic) | 42%
Cc1cccc2oc(-c3ccc(NC(=O)C(Cc4ccc(C(=O)NCCS(=O)(=O)O)cc4)c4ccc(C=CC(C)(C)C)cc4)cc3)nc12 (racemic) | 39%
Cc1cc(Cl)ccc1-c1ccc(NC(=O)C(Cc2ccc(C(=O)NCCS(=O)(=O)O)cc2)c2cccc(C3=CCC(C)(C)CC3)c2)cc1 (racemic) | 56%
CC1(C)CC=C(c2cccc(C(Cc3ccc(C(=O)NCCS(=O)(=O)O)cc3)C(=O)Nc3ccc(-c4ccc(Cl)cc4Cl)cc3)c2)CC1 (racemic) | 28%
CC(C)(C)c1ccc(-c2ccc(C(Cc3ccc(C(=O)NCCS(=O)(=O)O)cc3)C(=O)Nc3ccc(C4=CCCC4)cc3)cc2)cc1 (racemic) | 30%
CC(C)(C)C1CCC(c2ccc(C(Cc3ccc(C(=O)NCCS(=O)(=O)O)cc3)C(=O)Nc3ccc(-c4ccc(Cl)cc4Cl)cc3)cc2)CC1 (racemic) [drawing 106] | 25%

system: human hepatocytes; assay: Functional antagonism of glucagon-stimulated glucose production in hepatocytes; format: cell-based; settings: human hepatocyte assay, 1 nM glucagon; read-out: Hu Hepatocyte EC50
Method: Primary human, monkey, dog, rat, or mouse hepatocytes are seeded onto collagen-coated 24-well plates in Williams E medium (supplemented with 10% fetal bovine serum) and incubated at 37° C. overnight in M199 medium (supplemented with 15 mM glucose and 10 nM human insulin). The following day cells are washed twice with a glucose-free Kreb-bicarbonate buffer, pH 7.4, containing 0.1% BSA. Cells are then incubated at 37° C. with the aforementioned buffer containing 1 nM glucagon and varying concentrations of a glucagon antagonist (0-100 microM). Control wells without glucagon or antagonist are also included. After 1 hour, an aliquot of the medium is removed and analyzed for glucose content by means of the glucose oxidase method. The background glucose levels observed in the control wells are subtracted from the glucagon and antagonist containing wells. A graph of % glucose concentration vs drug concentration is plotted and an EC50 value for inhibition of glucose production generated using Sigmaplot software (SAS, Cary, N.C.). Alternatively, intracellular cAMP levels are measured using standard kits and EC50 values determined by plotting these levels against drug concentration. Antagonists of the glucagon receptor inhibit glucagon-induced cAMP production.

Compound | EC50
Cc1cc(C)c(-c2ccc(NC(=O)[C@H](Cc3ccc(C(=O)NCCS(=O)(=O)O)cc3)c3ccc(-c4ccc(C(C)(C)C)cc4)cc3)cc2)c(C)c1 | 4 nM
Cc1cc(Cl)ccc1-c1ccc(NC(=O)[C@H](Cc2ccc(C(=O)NCCS(=O)(=O)O)cc2)c2cccc(C3CCC(C)(C)CC3)c2)cc1 | 12 nM
Cc1cc(Cl)ccc1-c1ccc(NC(=O)[C@H](Cc2ccc(C(=O)NCCS(=O)(=O)O)cc2)c2ccc([C@H]3CC[C@@H](C(C)(C)C)CC3)cc2)cc1 | 3 nM
Cc1cc(-c2ccc(NC(=O)[C@H](Cc3ccc(C(=O)NCCS(=O)(=O)O)cc3)c3ccc(-c4ccc(C(C)(C)C)cc4)cc3)cc2)ccc1Cl | 31 nM
CC1(C)CC=C(c2ccc(NC(=O)[C@H](Cc3ccc(C(=O)NCCS(=O)(=O)O)cc3)c3ccc(-c4ccc(C(C)(C)C)cc4)cc3)cc2)CC1 | 36 nM
Cc1ccccc1-c1ccc(NC(=O)C(Cc2ccc(C(=O)NCCS(=O)(=O)O)cc2)c2ccc(-c3ccc(C(C)(C)C)cc3)cc2)cc1 (racemic) | 194 nM
Cc1cc(Cl)ccc1-c1ccc(NC(=O)C(Cc2ccc(C(=O)NCCS(=O)(=O)O)cc2)c2ccc(C3CCC(C(C)(C)C)CC3)cc2)cc1 (racemic) | 41 nM
Cc1cc(C(F)(F)F)ccc1-c1ccc(NC(=O)C(Cc2ccc(C(=O)NCCS(=O)(=O)O)cc2)c2ccc(C3=CCC(C)(C)CC3)cc2)cc1 (racemic) | 30 nM
Cc1cc(Cl)ccc1-c1ccc(NC(=O)C(Cc2ccc(C(=O)NCCS(=O)(=O)O)cc2)c2ccc(C3=CCC(C)(C)CC3)cc2)cc1 (racemic) | 49 nM
Cc1cccc2oc(-c3ccc(NC(=O)C(Cc4ccc(C(=O)NCCS(=O)(=O)O)cc4)c4ccc(C=CC(C)(C)C)cc4)cc3)nc12 (racemic) | 62 nM
Cc1cc(Cl)ccc1-c1ccc(NC(=O)C(Cc2ccc(C(=O)NCCS(=O)(=O)O)cc2)c2cccc(C3=CCC(C)(C)CC3)c2)cc1 (racemic) | 26 nM
CC1(C)CC=C(c2cccc(C(Cc3ccc(C(=O)NCCS(=O)(=O)O)cc3)C(=O)Nc3ccc(-c4ccc(Cl)cc4Cl)cc3)c2)CC1 (racemic) | 30 nM
CC(C)(C)c1ccc(-c2ccc(C(Cc3ccc(C(=O)NCCS(=O)(=O)O)cc3)C(=O)Nc3ccc(C4=CCCC4)cc3)cc2)cc1 (racemic) | 65 nM

target: T1, human glucagon receptor (Homo sapiens, UniProt P47871); assay: Human glucagon receptor affinity ([125I]glucagon displacement, membrane preparation); format: binding; settings: human glucagon receptor binding assay; stereo column says racemic or R-isomer; read-out: Hu IC50
T1 construct: host or cells: human liver samples or a recombinant cell line (alternatives)
T1 sequence (P47871 26-477): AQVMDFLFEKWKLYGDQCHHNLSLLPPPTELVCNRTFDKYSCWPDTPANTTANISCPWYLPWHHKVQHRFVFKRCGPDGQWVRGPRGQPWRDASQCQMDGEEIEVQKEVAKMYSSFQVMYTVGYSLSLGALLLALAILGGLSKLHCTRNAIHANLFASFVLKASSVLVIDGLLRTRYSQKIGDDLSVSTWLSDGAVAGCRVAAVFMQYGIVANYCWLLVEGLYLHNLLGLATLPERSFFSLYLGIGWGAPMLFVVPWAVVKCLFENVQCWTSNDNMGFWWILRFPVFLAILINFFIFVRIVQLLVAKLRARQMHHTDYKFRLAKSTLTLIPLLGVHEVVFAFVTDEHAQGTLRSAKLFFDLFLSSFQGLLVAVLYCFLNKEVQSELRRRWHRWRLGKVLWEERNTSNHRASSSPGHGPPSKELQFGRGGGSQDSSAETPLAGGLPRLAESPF
Method: Compounds provided herein are dissolved in a suitable solvent (e.g., dimethlysulfoxide) at a concentration of 10 mM and then diluted in buffer (e.g., 50 mM Hepes, pH 7.4, 5 mM MgCl2, 1 mM CaCl2, and 0.2% BSA) to concentrations ranging from 1 nM to 100 μM. Compounds (20 μL/well) and [^125I]glucagon at the final concentration of 0.125 nM (20 μl/well) (Perkin Elmer) are added to and mixed in wells of a 96-well plate (Costar, Corning) containing 120 μL of buffer. Next, an appropriate aliquot of a membrane preparation containing the human glucagon receptor (isolated from human liver samples or obtained from a recombinant cell line) is added to the wells. The binding mixtures are incubated for 2 hrs at room temperature. In the meantime, a MultiScreen 96-well filter plate (Millipore) is treated with 200 μL of the buffer, which is vacuumed through the filter just before the binding mixtures are transferred to the plate. At the end of incubation, binding mixtures are transferred to the wells of the MultiScreen 96-well filter plate and filtered through by applying vacuum. The plate is washed once with 200 μL per well of the buffer, and the filters are dried and counted using a gamma counter.

Compound | IC50
Cc1cc(C)c(-c2ccc(NC(=O)[C@H](Cc3ccc(C(=O)NCCS(=O)(=O)O)cc3)c3ccc(-c4ccc(C(C)(C)C)cc4)cc3)cc2)c(C)c1 | 5 nM
Cc1cc(Cl)ccc1-c1ccc(NC(=O)[C@H](Cc2ccc(C(=O)NCCS(=O)(=O)O)cc2)c2cccc(C3CCC(C)(C)CC3)c2)cc1 | 10 nM
Cc1cc(Cl)ccc1-c1ccc(NC(=O)[C@H](Cc2ccc(C(=O)NCCS(=O)(=O)O)cc2)c2ccc([C@H]3CC[C@@H](C(C)(C)C)CC3)cc2)cc1 | 9 nM
Cc1cc(-c2ccc(NC(=O)[C@H](Cc3ccc(C(=O)NCCS(=O)(=O)O)cc3)c3ccc(-c4ccc(C(C)(C)C)cc4)cc3)cc2)ccc1Cl | 6 nM
CC1(C)CC=C(c2ccc(NC(=O)[C@H](Cc3ccc(C(=O)NCCS(=O)(=O)O)cc3)c3ccc(-c4ccc(C(C)(C)C)cc4)cc3)cc2)CC1 | 8 nM
Cc1ccccc1-c1ccc(NC(=O)C(Cc2ccc(C(=O)NCCS(=O)(=O)O)cc2)c2ccc(-c3ccc(C(C)(C)C)cc3)cc2)cc1 (racemic) | 10 nM
Cc1cc(Cl)ccc1-c1ccc(NC(=O)C(Cc2ccc(C(=O)NCCS(=O)(=O)O)cc2)c2ccc(C3CCC(C(C)(C)C)CC3)cc2)cc1 (racemic) | 12 nM
Cc1cc(C(F)(F)F)ccc1-c1ccc(NC(=O)C(Cc2ccc(C(=O)NCCS(=O)(=O)O)cc2)c2ccc(C3=CCC(C)(C)CC3)cc2)cc1 (racemic) | 11 nM
Cc1cc(Cl)ccc1-c1ccc(NC(=O)C(Cc2ccc(C(=O)NCCS(=O)(=O)O)cc2)c2ccc(C3=CCC(C)(C)CC3)cc2)cc1 (racemic) | 17 nM
Cc1cccc2oc(-c3ccc(NC(=O)C(Cc4ccc(C(=O)NCCS(=O)(=O)O)cc4)c4ccc(C=CC(C)(C)C)cc4)cc3)nc12 (racemic) | 13 nM
Cc1cc(Cl)ccc1-c1ccc(NC(=O)C(Cc2ccc(C(=O)NCCS(=O)(=O)O)cc2)c2cccc(C3=CCC(C)(C)CC3)c2)cc1 (racemic) | 9 nM
CC1(C)CC=C(c2cccc(C(Cc3ccc(C(=O)NCCS(=O)(=O)O)cc3)C(=O)Nc3ccc(-c4ccc(Cl)cc4Cl)cc3)c2)CC1 (racemic) | 15 nM
CC(C)(C)c1ccc(-c2ccc(C(Cc3ccc(C(=O)NCCS(=O)(=O)O)cc3)C(=O)Nc3ccc(C4=CCCC4)cc3)cc2)cc1 (racemic) | 17 nM
CC(C)(C)C1CCC(c2ccc(C(Cc3ccc(C(=O)NCCS(=O)(=O)O)cc3)C(=O)Nc3ccc(-c4ccc(Cl)cc4Cl)cc3)cc2)CC1 (racemic) [drawing 106] | 16 nM
